Measurements reported in paper PMC11695783 (Frontiers in Pharmacology, 2024).
Several values for one entry are separate records, joined by “and”; a condition that tells them apart may be missing. Equal entries are not always repeated. Where two headings read alike, the source gives them in different places.

What was measured:
[1] = parameters: method as in Shang et al., 2018; Xianhui, 2010; conditions: piglets, IM; ref Shang et al., 2018; Xianhui, 2010; cited from earlier work
mice [2] = conditions: acute oral toxicity, ref EMA, 1999, cited from earlier work
mice [3] = test system: mice; parameters: method as in EMA, 1999; conditions: administered intravenously, ref EMA, 1999; cited from earlier work
[4] = Pharmacokinetic studies in mice (intravenous and intramuscular, plasma, HPLC-MS/MS); type: in vivo, BALB/c mice; parameters: AUClast / AUCall / AUCINF_obs / AUCINF_pred / AUCINFobs: concentration or dose not given beside the values; conditions: for F / Ka / Kel / T1/2ka / T1/2kel / Tmax / Cmax / AUC0-∞ / Cl / Vd / C0: mice; for AUCINFobs / AUClast / AUClast/AUCINFobs ratio / AUC0-t/AUC0-∞ ratio (AV): non-compartment model; for AUCINFobs / AUClast / AUClast/AUCINFobs ratio: individual mice; for AUC0-t/AUC0-∞ ratio (AV): mean
Protocol: Pharmacokinetic experimental procedures of compound 16C were measured according to previous reports with some modifications ([Wang et al., 2022]). In brief, BALB/c mice were divided into two groups of eight mice each; one group was injected intravenously and the other was injected intramuscularly with compound 16C at a dose of 10 mg/kg. The dose was based on previous studies of novel pleuromutilin derivatives ([Jin et al., 2019]; [Wang et al., 2022]). Meanwhile, the dose of tiamulin approved by the European Union for intramuscular administration is 10–20 mg/kg ([EMA, 1999]). The volume of the injection was 0.1 mL/10 g. The compound 16C formulation was a filtered solution in 5% DMSO, 5% Tween-80, and 90% normal saline. Blood was obtained from eight mice via the ocular venous plexus at 0.083, 0.167, 0.25, 0.334, 0.5, 0.75, 1, 1.5, 2, 3, 4, 6, 8, and 12 h following tail intravenous or thigh Intramuscular injection. A glass capillary with a diameter of 0.3 mm was inserted into the outer canthus of the mouse, and 200 μL blood was collected using a 1.5 mL anticoagulant centrifuge tube. The blood was centrifuged at 3,000 rpm for 10 min to obtain plasma. 100 μL of plasma was aspirated for drug concentration detection, and eight parallel samples from different mice were obtained at each time point.
All pharmacokinetic experimental samples and method validation samples were added with 4 times the volume of acetonitrile and shaken for 1 min, centrifuged at high speed at 13,000× g for 10 min, and the supernatants were taken and filtered to detect the drug concentration. Some samples with high concentrations were diluted to the linear range prior to analysis.
The extracted samples were analyzed using a high-performance liquid chromatography-tandem mass spectrometry (HPLC-MS/MS) system (Agilent, Santa Clara, CA, United States) 1200 HPLC and Applied Biosystems (Waltham, MA, United States) API 4000 mass spectrometer). HPLC-MS/MS analysis using a Zorbax Eclipse XDB-C18 (4.6 × 50 mm, 3.5 μm) column (Agilent). The mobile phase A (acetonitrile) and B (water) were applied as a gradient as follows: 0–3 min: 15%–95% A and maintain from 3 min to 5 min at 95% A. 5–5.1 min: 95%–15% A and maintain from 5.1 to 10 min at 15% A. Flow rate: 500 μL/min; column temperature: 30°C and injection volume: 4 μL. The electrospray ionization (ESI) source of the mass spectrometer was operated in […], with the following ion source parameters: ion spray voltage 4,500 V, collision gas 7 psi, ion source gas 1 55 psi, ion source gas 2 40 psi, curtain gas 20 psi, source temperature 600°C. The precursor ion m/z of Compound 16C was 633.3, and the product ions m/z were 272.0 (quantifier) 286.9 and 313.0. Declustering potentials (DP) were 140, 140, and 144 V, respectively; entrance potential (EP) was 10 V; collision energy (CE) was 55, 46, and 15 V, respectively; and collision cell exit potential (CXP) was 14 V.
[…] Pharmacokinetic parameters include time to maximum concentration (Tmax), maximum concentration (Cmax), the area under the plasma concentration–time curve (AUC0-∞), clearance rate (CL), the apparent volume of distribution (Vd), bioavailability (F), elimination half-life (T1/2kel) and absorption half-life (T1/2ka).

[5] = test system: bronchial epithelial cell line 16HBE; parameters: method as in PMID 26150841; conditions: ref [30]; cited from earlier work
ICR strain mice = assay: Acute toxicity study, oral gavage; type: in vivo
Protocol: Twenty four male and female SPF-grade ICR strain mice were randomly divided into 6 groups of 4 mice each. Compound 16C was dissolved in DMSO at doses of 0, 8, 40, 200, 1,000, and 5,000 mg/kg and was administered to the mice by gavage.
Ten mice were gavaged with 5,000 mg/kg of compound 16C and another 10 mice were given DMSO orally as a control. The mice were fed and watered ad libitum. The animals’ appearance, diet, behavior, and death were observed and recorded for 14 consecutive days after administration. The LD50 was calculated as previously described ([Xiao et al., 2019]), and the test was repeated twice. To assess the acute toxicity of intramuscular administration in mice, we repeated the above experiment and replaced gavage with intramuscular injection.

A549 = test system: A549; parameters: method as in PMID 26150841; conditions: A549, 8 μg/mL, compared with the control drugs; ref [30]; cited from earlier work

Q: Which results are given for C=C[C@]1(C)C[C@@H](OC(=O)CSCCN(CC)CC)[C@]2(C)[C@H](C)CC[C@]3(CCC(=O)[C@H]32)[C@@H](C)[C@@H]1O [tiamulin, Tiamulin, reference compound]?
A: bioavailability [1]: 73.51% and 75.73%; LD50 (mice [2]; female mice): 650 mg/kg; LD50 (mice [2]; male mice): 770 mg/kg; LD50 (mice [3]): 50 mg/kg

Q: Which F ([4]; IM 10 mg/kg) does the source give for C=CC1(C)CC(OC(=O)CSc2ccc(NC(=O)Cc3ccc([N+](=O)[O-])cc3)cc2)C2(C)C(C)CCC3(CCC(=O)C32)C(C)C1O (centres unmarked) [compound 16C, 22–((4-((4-nitrophenyl)acetamido)phenyl)thio)deoxypleuromutilin] here?
A: 71.29 ± 19.34%

Q: What about the Ka ([4]; IM 10 mg/kg) of the same compound?
A: 14.41 ± 7.76 h⁻¹

Q: And the Kel ([4]; IM 10 mg/kg)?
A: 0.33 ± 0.07 h⁻¹

Q: What about the T1/2ka ([4]; IM 10 mg/kg) of the same compound?
A: 3.6 ± 1.8 min

Q: What about the T1/2kel ([4]; IM 10 mg/kg) of the same compound?
A: 2.20 h and 2.20 ± 0.52 h

Q: And the Tmax ([4]; IM 10 mg/kg)?
A: 14.4 ± 5.4 min

Q: And the Cmax ([4]; IM 10 mg/kg, n = 8)?
A: 0.50 ± 0.11 µg/mL

Q: What about the “AUC0-∞” value ([4]; IM 10 mg/kg, two-compartmental model) of the same compound?
A: 1.07 ± 0.23 µg·h/mL

Q: And the T1/2ka ([4]; IM 10 mg/kg, listed as Compound 16C)?
A: 3.6 min

Q: What about the AUCINFobs ([4]; IM) of the same compound?
A: 805.258 and 1373.07 and 1092.7 and 1076.67 and 1204.87 and 1450.76 and 1023.1 and 1087.9

Q: And the AUClast ([4]; IM)?
A: 801.322 and 1354.01 and 1070.85 and 1055.33 and 1188.66 and 1432.45 and 925.896 and 1050.1

Q: What about the AUClast/AUCINFobs ratio ([4]; IM) of the same compound?
A: 99.5113% and 98.6117% and 98.0006% and 98.0177% and 98.6551% and 98.7381% and 90.4989% and 96.5252%

Q: And the “AUC0-t/AUC0-∞ ratio (AV)” value ([4]; IM)?
A: 97.32% and 97.3198%

Q: What about the Cl ([4]; IV 10 mg/kg) of the same compound?
A: 6.73 ± 1.67 L/h/kg

Q: And the Kel ([4]; IV 10 mg/kg)?
A: 0.41 ± 0.14 h⁻¹

Q: What about the Vd ([4]; IV 10 mg/kg) of the same compound?
A: 3.55 ± 1.32 L/kg

Q: What about the C0 ([4]; IV 10 mg/kg, n = 8) of the same compound?
A: 5.58 ± 1.25 µg/mL

Q: What about the “AUC0-∞” value ([4]; IV 10 mg/kg, two-compartmental model) of the same compound?
A: 1.56 ± 0.37 µg·h/mL

Q: And the T1/2kel ([4]; IV 10 mg/kg, 10 mg/kg)?
A: 1.89 h and 1.89 ± 0.61 h

Q: And the AUCINFobs ([4]; IV)?
A: 1454.8 and 1871.31 and 1501.72 and 1496.6 and 2594.18 and 1752.1 and 2317.09 and 1731

Q: And the AUClast ([4]; IV)?
A: 1441.26 and 1869.35 and 1488.47 and 1490.96 and 2574.6 and 1734.84 and 2287.49 and 1712.29

Q: And the AUClast/AUCINFobs ratio ([4]; IV)?
A: 99.0694% and 99.8954% and 99.1179% and 99.6229% and 99.2455% and 99.0149% and 98.7227% and 98.9189%

Q: And the “AUC0-t/AUC0-∞ ratio (AV)” value ([4]; IV)?
A: 99.20% and 99.2009%

Q: And the “AUC0-∞” value ([4]; IM(10mg/kg), n=8)?
A: 1.07 ± 0.23 µg·h/mL

Q: What about the Cmax ([4]; IM(10mg/kg), n=8) of the same compound?
A: 0.50 ± 0.11 µg/mL

Q: What about the F ([4]; IM(10mg/kg), n=8) of the same compound?
A: 71.29±19.34%

Q: And the Ka ([4]; IM(10mg/kg), n=8)?
A: 14.41 ± 7.76 h⁻¹

Q: And the Kel ([4]; IM(10mg/kg), n=8)?
A: 0.33 ± 0.07 h⁻¹

Q: What about the T1/2ka ([4]; IM(10mg/kg), n=8) of the same compound?
A: 3.6 ± 1.8 min

Q: What about the T1/2kel ([4]; IM(10mg/kg), n=8) of the same compound?
A: 2.20 ± 0.52 h

Q: And the Tmax ([4]; IM(10mg/kg), n=8)?
A: 14.4 ± 5.4 min

Q: What about the “AUC0-∞” value ([4]; IV(10mg/kg), n=8) of the same compound?
A: 1.56 ± 0.37 µg·h/mL

Q: What about the C0 ([4]; IV(10mg/kg), n=8) of the same compound?
A: 5.58 ± 1.25 µg/mL

Q: What about the Cl ([4]; IV(10mg/kg), n=8) of the same compound?
A: 6.73 ± 1.67 L/h/kg

Q: What about the Kel ([4]; IV(10mg/kg), n=8) of the same compound?
A: 0.41 ± 0.14 h⁻¹

Q: And the T1/2kel ([4]; IV(10mg/kg), n=8)?
A: 1.89 ± 0.61 h

Q: And the Vd ([4]; IV(10mg/kg), n=8)?
A: 3.55 ± 1.32 L/kg

Q: What about the “influence on cell viability” value [5] of the same compound?
A: slightly more affected

Q: And the “deaths (pre-test)” value (ICR strain mice; gavage 8, 40, 200, 1,000, and 5,000 mg/kg in DMSO, observed 14 d)?
A: no deaths were observed

Q: What about the mouse deaths (ICR strain mice; oral gavage, single dose of 5,000 mg/kg, after 2 weeks) of the same compound?
A: did not result in any mouse deaths

Q: And the LD50 (ICR strain mice; oral gavage, single dose, mice, observed 14 d)?
A: > 5,000 mg/kg

Q: And the symptoms observed (ICR strain mice; single dose of 5,000 mg/kg, oral gavage or intramuscular injection, mice rapidly recovered)?
A: anorexic symptoms

Q: And the “influence on cell viability” value (A549)?
A: only slight influences on the viability
